ChEMBL document CHEMBL1201862, “PubChem BioAssay data set” (2004)
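Step 1: Grow cells in 96-well plates. Step 2: Expose to compound for 48 hours at 5 concentrations. Step 3: Interpolate endpoints linearly; if unreached, use highest concentration. Abbreviation: GI50, concentration required for 50% inhibition of growth.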 Active and inactive are the calls of the source. Cut-off read from the data, not from the text of the source: active = GI50 up to about 1.1 µM and inactive = higher.

How the values were obtained:
Assay in all cases: inhibition of tumour cell growth, NCI panel, 48 h
DMS-273 = system: DMS-273
U-251 = system: U-251
NCI-H23 = system: NCI-H23
NCI-H226 = system: NCI-H226
HT-29 = system: HT-29
OVCAR-3 = system: OVCAR-3
TK-10 = system: TK-10
SNB-19 = system: SNB-19
SK-MEL-28 = system: SK-MEL-28
UACC-62 = system: UACC-62
MOLT-4 = system: MOLT-4
EKVX = system: EKVX
SW-620 = system: SW-620
A549 = system: A549
SNB-75 = system: SNB-75
HOP-18 = system: HOP-18
KM12 = system: KM12
HOP-62 = system: HOP-62
LOX IMVI = system: LOX IMVI
DLD-1 = system: DLD-1
OVCAR-8 = system: OVCAR-8
COLO 205 = system: COLO 205
SF-539 = system: SF-539
NCI-H460 = system: NCI-H460
UO-31 = system: UO-31
NCI-H522 = system: NCI-H522
786-0 = system: 786-0
SK-MEL-5 = system: SK-MEL-5
ACHN = system: ACHN
IGROV-1 = system: IGROV-1
CCRF-CEM = system: CCRF-CEM
SN12C = system: SN12C
KM-20L2 = system: KM-20L2
RXF 393 = system: RXF 393
HCT-15 = system: HCT-15
HCT-116 = system: HCT-116
K562 = system: K562
Malme-3M = system: Malme-3M
UACC-257 = system: UACC-257
XF498 = system: XF498
M14 = system: M14
HL-60 = system: HL-60
SK-OV-3 = system: SK-OV-3
SF-295 = system: SF-295
RPMI-8226 = system: RPMI-8226
DMS-114 = system: DMS-114
OVCAR-4 = system: OVCAR-4
LXFL 529 = system: LXFL 529
SNB-78 = system: SNB-78
CAKI-1 = system: CAKI-1
OVCAR-5 = system: OVCAR-5
HOP-92 = system: HOP-92
HCC 2998 = system: HCC 2998
SR = system: SR
SF-268 = system: SF-268
M19-MEL = system: M19-MEL
SK-MEL-2 = system: SK-MEL-2

Cc1ccc(NC(=O)c2cc3cc(/N=N/c4ccccc4C(=O)O)ccc3oc2=O)cc1
GI50 (DMS-273): 37.4 µM (inactive)
GI50 (U-251): 43.2 µM (inactive)
GI50 (NCI-H23): 32.1 µM (inactive)
GI50 (NCI-H226): 39.4 µM (inactive)
GI50 (HT-29): 38.5 µM (inactive)
GI50 (OVCAR-3): 25.2 µM (inactive)
GI50 (TK-10): 58.9 µM (inactive)
GI50 (SNB-19): 28.4 µM (inactive)
GI50 (SK-MEL-28): 37.5 µM (inactive)
GI50 (UACC-62): 24.6 µM (inactive)
GI50 (MOLT-4): 32.2 µM (inactive)
GI50 (EKVX): 46.1 µM (inactive)
GI50 (SW-620): 47.5 µM (inactive)
GI50 (A549): 40.9 µM (inactive)
GI50 (SNB-75): 45.9 µM (inactive)
GI50 (HOP-18): 32 µM (inactive)
GI50 (KM12): 44.5 µM (inactive)
GI50 (HOP-62): > 100 µM (inactive)
GI50 (LOX IMVI): 35.2 µM (inactive)
GI50 (DLD-1): 41 µM (inactive)
GI50 (OVCAR-8): 58.7 µM (inactive)
GI50 (COLO 205): 35.3 µM (inactive)
GI50 (SF-539): 30.5 µM (inactive)
GI50 (NCI-H460): 49.3 µM (inactive)
GI50 (UO-31): 30.1 µM (inactive)
GI50 (NCI-H522): 30.1 µM (inactive)
GI50 (786-0): 94.6 µM (inactive)
GI50 (SK-MEL-5): 28.5 µM (inactive)
GI50 (ACHN): 53.2 µM (inactive)
GI50 (IGROV-1): 41.2 µM (inactive)
GI50 (CCRF-CEM): 30.2 µM (inactive)
GI50 (SN12C): 54.6 µM (inactive)
GI50 (KM-20L2): 36 µM (inactive)
GI50 (RXF 393): 51.4 µM (inactive)
GI50 (HCT-15): 34.5 µM
GI50 (HCT-116): 28.4 µM (inactive)
GI50 (K562): 39.2 µM (inactive)
GI50 (Malme-3M): 43.2 µM (inactive)
GI50 (UACC-257): 20.3 µM (inactive)
GI50 (XF498): 33 µM (inactive)
GI50 (M14): 55.3 µM (inactive)
GI50 (HL-60): 26.7 µM (inactive)
GI50 (SK-OV-3): 74 µM (inactive)
GI50 (SF-295): 44.4 µM (inactive)
GI50 (RPMI-8226): 18.6 µM (inactive)
GI50 (DMS-114): 24 µM (inactive)

O/N=C1/CCC/C1=C\c1ccccc1
GI50 (DMS-273): > 100 µM (inactive)
GI50 (U-251): > 100 µM (inactive)
GI50 (NCI-H23): > 100 µM (inactive)
GI50 (NCI-H226): > 100 µM (inactive)
GI50 (HT-29): > 10 µM (inactive)
GI50 (OVCAR-3): > 100 µM (inactive)
GI50 (OVCAR-4): > 100 µM (inactive)
GI50 (LXFL 529): > 100 µM (inactive)
GI50 (TK-10): > 100 µM (inactive)
GI50 (SNB-78): > 100 µM (inactive)
GI50 (CAKI-1): > 100 µM (inactive)
GI50 (SNB-19): > 100 µM (inactive)
GI50 (SK-MEL-28): > 100 µM (inactive)
GI50 (UACC-62): > 100 µM (inactive)
GI50 (MOLT-4): 42.6 µM (inactive)
GI50 (EKVX): 21.9 µM (inactive)
GI50 (SW-620): > 100 µM (inactive)
GI50 (A549): > 100 µM (inactive)
GI50 (SNB-75): 18.5 µM (inactive)
GI50 (HOP-18): > 100 µM (inactive)
GI50 (KM12): > 100 µM (inactive)
GI50 (HOP-62): > 100 µM (inactive)
GI50 (LOX IMVI): > 100 µM (inactive)
GI50 (DLD-1): > 100 µM (inactive)
GI50 (OVCAR-8): > 100 µM (inactive)
GI50 (COLO 205): > 100 µM (inactive)
GI50 (SF-539): > 100 µM (inactive)
GI50 (NCI-H460): > 100 µM (inactive)
GI50 (OVCAR-5): 67.5 µM (inactive)
GI50 (UO-31): > 100 µM (inactive)
GI50 (NCI-H522): 31 µM (inactive)
GI50 (HOP-92): > 100 µM (inactive)
GI50 (786-0): > 100 µM (inactive)
GI50 (SK-MEL-5): > 100 µM (inactive)
GI50 (ACHN): > 100 µM (inactive)
GI50 (HCC 2998): > 100 µM (inactive)
GI50 (IGROV-1): > 100 µM (inactive)
GI50 (CCRF-CEM): > 100 µM (inactive)
GI50 (SN12C): > 100 µM (inactive)
GI50 (KM-20L2): > 100 µM (inactive)
GI50 (RXF 393): 96.6 µM (inactive)
GI50 (HCT-15): > 100 µM
GI50 (HCT-116): > 100 µM (inactive)
GI50 (K562): 74.1 µM (inactive)
GI50 (SR): 12.4 µM (inactive)
GI50 (Malme-3M): > 100 µM (inactive)
GI50 (SF-268): > 100 µM (inactive)
GI50 (UACC-257): > 100 µM (inactive)
GI50 (XF498): 29.9 µM (inactive)
GI50 (M14): > 100 µM (inactive)
GI50 (HL-60): 28.6 µM (inactive)
GI50 (SK-OV-3): > 100 µM (inactive)
GI50 (M19-MEL): > 10 µM (inactive)
GI50 (SF-295): > 100 µM (inactive)
GI50 (RPMI-8226): > 100 µM (inactive)
GI50 (SK-MEL-2): > 100 µM (inactive)

CC(C)COC1Sc2ccccc2S1
GI50 (DMS-273): 19.8 µM (inactive)
GI50 (U-251): 18.7 µM (inactive)
GI50 (NCI-H23): 22.3 µM (inactive)
GI50 (HT-29): 13.1 µM (inactive)
GI50 (OVCAR-3): 19.6 µM (inactive)
GI50 (OVCAR-4): 23.1 µM (inactive)
GI50 (LXFL 529): 20.7 µM (inactive)
GI50 (TK-10): 21.5 µM (inactive)
GI50 (SNB-78): 27.9 µM (inactive)
GI50 (CAKI-1): 16.3 µM (inactive)
GI50 (SNB-19): 18.1 µM (inactive)
GI50 (SK-MEL-28): 17.4 µM (inactive)
GI50 (UACC-62): 4.91 µM (inactive)
GI50 (MOLT-4): 5.05 µM (inactive)
GI50 (EKVX): 20 µM (inactive)
GI50 (SW-620): 29.7 µM (inactive)
GI50 (A549): 20.5 µM (inactive)
GI50 (SNB-75): 1.32 µM (inactive)
GI50 (HOP-18): 16.5 µM (inactive)
GI50 (HOP-62): 21.4 µM (inactive)
GI50 (LOX IMVI): 12.7 µM (inactive)
GI50 (DLD-1): 16.4 µM (inactive)
GI50 (OVCAR-8): 29.1 µM (inactive)
GI50 (COLO 205): 32.4 µM (inactive)
GI50 (NCI-H460): 7.85 µM (inactive)
GI50 (UO-31): 15.5 µM (inactive)
GI50 (HOP-92): 14.5 µM (inactive)
GI50 (786-0): 22.3 µM (inactive)
GI50 (ACHN): 15.7 µM (inactive)
GI50 (HCC 2998): 28.7 µM (inactive)
GI50 (IGROV-1): 5.35 µM (inactive)
GI50 (CCRF-CEM): 27.7 µM (inactive)
GI50 (SN12C): 18.8 µM (inactive)
GI50 (KM-20L2): 17.5 µM (inactive)
GI50 (RXF 393): 18.2 µM (inactive)
GI50 (HCT-15): 22.4 µM
GI50 (Malme-3M): 23.6 µM (inactive)
GI50 (SF-268): 23.1 µM (inactive)
GI50 (XF498): > 10 µM (inactive)
GI50 (M14): 20.6 µM (inactive)
GI50 (SK-OV-3): 28.1 µM (inactive)
GI50 (SF-295): 16.4 µM (inactive)
GI50 (RPMI-8226): 5.45 µM (inactive)
GI50 (DMS-114): 12.5 µM (inactive)

C[C@@H]1C[C@]2(C[C@@H](C)C3[C@@H](CC4(C)[C@@H]5CCC6C(C)(C)OC(=O)C=C[C@]67C[C@@]5(CC[C@]34C)OO7)O2)OC1=O (stereo partly drawn)
GI50 (DMS-273): > 100 µM (inactive)
GI50 (U-251): 73.3 µM (inactive)
GI50 (NCI-H23): > 100 µM (inactive)
GI50 (NCI-H226): 24.8 µM (inactive)
GI50 (HT-29): > 100 µM (inactive)
GI50 (OVCAR-3): 24.1 µM (inactive)
GI50 (OVCAR-4): 24.8 µM (inactive)
GI50 (LXFL 529): 31.6 µM (inactive)
GI50 (TK-10): 52.1 µM (inactive)
GI50 (SNB-78): 52.5 µM (inactive)
GI50 (SNB-19): 49.4 µM (inactive)
GI50 (SK-MEL-28): 66.7 µM (inactive)
GI50 (UACC-62): 21.2 µM (inactive)
GI50 (SW-620): 84.3 µM (inactive)
GI50 (A549): > 100 µM (inactive)
GI50 (SNB-75): 18.4 µM (inactive)
GI50 (HOP-18): > 100 µM (inactive)
GI50 (LOX IMVI): 44.2 µM (inactive)
GI50 (DLD-1): 52.7 µM (inactive)
GI50 (OVCAR-8): 67.5 µM (inactive)
GI50 (COLO 205): > 100 µM (inactive)
GI50 (SF-539): 35.8 µM (inactive)
GI50 (NCI-H460): 86.7 µM (inactive)
GI50 (OVCAR-5): > 100 µM (inactive)
GI50 (UO-31): 51.8 µM (inactive)
GI50 (NCI-H522): 29.6 µM (inactive)
GI50 (786-0): > 100 µM (inactive)
GI50 (SK-MEL-5): 37.9 µM (inactive)
GI50 (ACHN): 92.5 µM (inactive)
GI50 (HCC 2998): > 100 µM (inactive)
GI50 (IGROV-1): 56.2 µM (inactive)
GI50 (SN12C): > 100 µM (inactive)
GI50 (RXF 393): > 100 µM (inactive)
GI50 (HCT-15): > 100 µM
GI50 (HCT-116): 61.5 µM (inactive)
GI50 (K562): 28.1 µM (inactive)
GI50 (SR): > 100 µM (inactive)
GI50 (Malme-3M): 37.9 µM (inactive)
GI50 (UACC-257): 55.2 µM (inactive)
GI50 (XF498): 17.6 µM (inactive)
GI50 (M14): 48.1 µM (inactive)
GI50 (HL-60): 46.2 µM (inactive)
GI50 (SK-OV-3): 43.6 µM (inactive)
GI50 (SF-295): 36 µM (inactive)
GI50 (RPMI-8226): > 100 µM (inactive)
GI50 (SK-MEL-2): 50.4 µM (inactive)
GI50 (DMS-114): > 100 µM (inactive)
